This note sets out measurements from ChEMBL document CHEMBL4808180, “Identification of 2,2-Dimethylbutanoic Acid (HST5040), a Clinical Development Candidate for the Treatment of Propionic Acidemia and Methylmalonic Acidemia” (J Med Chem, 2021).

Series [1] is described as follows: Tmax in CD1 mouse at 300 mg/kg, po. The following applies: in vivo. In kind it is ADME, organism-based.
Series [2] can be described thus: Half life in CD1 mouse at 30 mg/kg, iv. It is filed as ADME, organism-based. The following applies: in vivo.
A short description of series [3]: Oral bioavailability in CD1 mouse at 100 mg/kg. In kind it is ADME, organism-based. The following applies: in vivo.
The nature of series [4]: Stability in rat hepatocytes assessed as unchanged compound at 50 uM measured after 4 hrs. Particulars: read-out: Stabilty. It is filed as ADME, cell-based, Hepatocyte.
Series [5] addresses ATP-dependent translocase ABCB1 (Homo sapiens, UniProt P08183). Put plainly: Inhibition of human MDR1 assessed as reduction in NMQ transport at 24000 uM relative to control.
Series [6] addresses Solute carrier family 22 member 1 (Homo sapiens) (UniProt O15245). The series can be described thus: Inhibition of human OCT1 assessed as reduction in OCT1-mediated metformin transport at 14900 uM relative to control.

The source made the active and inactive calls.

Chain of ATP-dependent translocase ABCB1 (P08183 whole entry): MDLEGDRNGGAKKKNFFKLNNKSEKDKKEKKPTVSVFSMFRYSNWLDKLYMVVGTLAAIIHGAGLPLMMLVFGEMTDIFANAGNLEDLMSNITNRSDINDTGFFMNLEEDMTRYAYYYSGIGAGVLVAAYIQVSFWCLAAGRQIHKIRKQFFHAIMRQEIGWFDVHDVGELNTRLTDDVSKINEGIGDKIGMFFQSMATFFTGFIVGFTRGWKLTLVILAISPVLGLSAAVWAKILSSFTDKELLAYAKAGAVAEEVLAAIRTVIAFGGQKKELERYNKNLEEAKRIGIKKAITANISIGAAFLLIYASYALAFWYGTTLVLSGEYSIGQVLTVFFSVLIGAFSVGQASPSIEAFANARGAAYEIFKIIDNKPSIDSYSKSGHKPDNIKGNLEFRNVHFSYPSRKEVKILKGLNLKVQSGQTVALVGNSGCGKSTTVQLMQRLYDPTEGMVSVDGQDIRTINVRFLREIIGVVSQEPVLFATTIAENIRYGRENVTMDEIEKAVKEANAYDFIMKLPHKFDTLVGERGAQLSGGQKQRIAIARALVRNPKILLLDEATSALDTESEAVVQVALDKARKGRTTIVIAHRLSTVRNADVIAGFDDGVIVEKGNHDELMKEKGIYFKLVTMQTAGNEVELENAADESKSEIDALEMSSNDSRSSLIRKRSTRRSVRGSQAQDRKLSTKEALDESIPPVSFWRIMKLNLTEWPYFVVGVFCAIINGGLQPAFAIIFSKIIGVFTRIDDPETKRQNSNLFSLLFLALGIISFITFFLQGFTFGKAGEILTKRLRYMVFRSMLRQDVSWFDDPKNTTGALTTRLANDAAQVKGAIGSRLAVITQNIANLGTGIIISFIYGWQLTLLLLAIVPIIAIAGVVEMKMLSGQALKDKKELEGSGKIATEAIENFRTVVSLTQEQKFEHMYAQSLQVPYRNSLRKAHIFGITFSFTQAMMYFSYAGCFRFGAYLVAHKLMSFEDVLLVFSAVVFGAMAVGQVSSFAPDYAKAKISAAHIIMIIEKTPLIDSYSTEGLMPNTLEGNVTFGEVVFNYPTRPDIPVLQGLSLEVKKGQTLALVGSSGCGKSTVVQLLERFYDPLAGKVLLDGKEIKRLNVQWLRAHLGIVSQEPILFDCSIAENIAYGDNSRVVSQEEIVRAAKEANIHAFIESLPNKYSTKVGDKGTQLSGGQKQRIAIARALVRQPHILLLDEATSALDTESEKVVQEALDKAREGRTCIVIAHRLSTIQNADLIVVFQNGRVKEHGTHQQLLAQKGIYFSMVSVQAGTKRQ
Chain of Solute carrier family 22 member 1 (Homo sapiens) (O15245 whole entry, looked up): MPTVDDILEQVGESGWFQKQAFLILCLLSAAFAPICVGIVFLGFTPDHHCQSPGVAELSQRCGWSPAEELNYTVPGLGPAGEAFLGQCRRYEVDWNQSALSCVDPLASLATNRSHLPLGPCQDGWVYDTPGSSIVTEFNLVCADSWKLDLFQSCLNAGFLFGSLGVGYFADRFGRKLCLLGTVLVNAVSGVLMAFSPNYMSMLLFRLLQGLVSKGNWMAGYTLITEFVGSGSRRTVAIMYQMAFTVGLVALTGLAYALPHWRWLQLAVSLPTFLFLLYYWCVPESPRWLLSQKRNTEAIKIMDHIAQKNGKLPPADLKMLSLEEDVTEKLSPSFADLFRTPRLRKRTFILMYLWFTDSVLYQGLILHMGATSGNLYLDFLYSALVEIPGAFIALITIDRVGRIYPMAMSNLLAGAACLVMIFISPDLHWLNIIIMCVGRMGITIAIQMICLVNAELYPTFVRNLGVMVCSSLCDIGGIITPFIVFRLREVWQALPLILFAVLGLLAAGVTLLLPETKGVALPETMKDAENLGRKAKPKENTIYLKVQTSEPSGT

On to `CCC(C)(C)C(=O)O` [DIMEBUTIC ACID], for which the Tmax – broadly, the time from dosing to the highest level – in series [1] was determined as 30 min. For the same compound, the half-life (as a rule, the time needed for the level to fall by half in the phase considered) in series [2] is 49.9 min. Moreover, the bioavailability (usually dose-corrected exposure relative to a reference, in per cent) in series [3] stood at 93.3%. For the same compound, in series [4], the remaining at 4 h, 50 µM worked out at 86%. Further, in series [5], the “inhibition (INH)” value is “Not Active”. The inhibition result in series [6] was “inactive”.
